Measured values published in patent US20060111324A1, “(+)-Ttrans-isomers of (1-phosphonomethoxy-2-alkylcyclopropyl)methyl nucleoside derivatives, process for the preparation of stereoisomers thereof, and use of antiviral agents thereof” (LG Life Sciences, priority 2002, published 2006).
Where two headings read alike, the source gives them in different places.

What was measured:
[1] = Determination of cytotoxicity (MTT) in HepG2.2.15 cells; settings: human
[2] = test system: Hepatitis B Virus (HBV); experiment: Inhibition of hepatitis B virus replication in HepG2.2.15 cells, quantitative PCR of culture medium; assay type: cell-based; settings: for pharmaceutical activity as an antiviral agent (in words): comparison among the compounds of Table 2
[3] = test system: HepG2.2.15 cell; experiment: Determination of cytotoxicity (MTT) in HepG2.2.15 cells; settings: read-out: CC50 (μM) in HepG2.2.15; MTT, 10th day of drug treatment
[4] = test system: HBV; experiment: Pharmacological test on HBV transgenic mouse (serum HBV DNA by PCR); assay type: in vivo; settings: for Result: number of mice showing pharmacological effect / number of total mice: effect = blood does not contain HBV DNA
[5] = test system: HepG2.2.15 cell
[6] = Hepatitis B virus, 240 h, HepG2.2.15 cells, 10 days drug treatment, HBV DNA in medium by PCR

Which results are given for `C[C@@H]1C[C@]1(Cn1cnc2c(Sc3ccc([N+](=O)[O-])cc3)nc(N)nc21)OCP(=O)(O)O` (relative stereo) [Compound 44, [{(+)-cis-1-({2-amino-6-[(4-nitrophenyl)sulfanyl]-9H-purine-9-yl}methyl)-2-methylcyclopropyl}oxy]methylphosphonic acid]?
CC50 at 10 days [1]: > 1000 µM; EC50 [2, 6]: > 40 µM

Which CC50 [3] does the source give for `CC1CC1(Cn1cnc2c(O)nc(N)nc21)OCP(=O)(O)O` (single isomer, unassigned) [Compound 36, {(−)-trans-1-[(2-amino-6-hydroxy-9H-purine-9-yl)methyl]-2-methylcyclopropyl}oxy)methylphosphonic acid] here?
Its CC50 is over 1000 µM.

What about the EC50 ([2]; HepG2.2.15 cells, 10 days drug treatment, HBV DNA in medium by PCR) of the same compound?
The EC50 was over 10 µM.

For `CCC1CC1(Cn1cnc2c(O)nc(N)nc21)OCP(=O)(O)O` (single isomer, unassigned) [Compound 37, ({(−)-trans-1-1(2-amino-6-hydroxy-9H-purine-9-yl)methyl]-2-ethylcyclopropyl}oxy)methylphosphonic acid], which CC50 at 10 days [1] is on record?
Its CC50 at 10 days is over 1000 µM.

And the EC50 [2, 6]?
Its EC50 is over 40 µM.

With `C[C@@H]1C[C@]1(Cn1cnc2c(O)nc(N)nc21)OCP(=O)(O)O` (single isomer, unassigned) [Compound 38, ({(+)-cis-1-[(2-amino-6-hydroxy-9H-purine-9-yl)methyl]-2-methylcyclopropyl}oxy)methylphosphonic acid] as the compound, how does the CC50 at 10 days [1] read?
The CC50 at 10 days was over 1000 µM.

And the EC50 [2, 6]?
Its EC50 is over 10 µM.

What does the source list for `C[C@H]1C[C@]1(Cn1cnc2c(O)nc(N)nc21)OCP(=O)(O)O` [Compound 1, (((1S,2S)-1-[(2-amino-6-hydroxy-9H-purine-9-yl)methyl]-2-methylcyclopropyl}oxy)methylphosphonic acid]?
CC50 at 10 days [1]: > 1000 µM; EC50 [2, 6]: 0.03 µM; pharmaceutical activity as an antiviral agent (in words) [2]: most excellent pharmaceutical activity

With `C[C@H]1C[C@]1(Cn1cnc2cnc(N)nc21)OCP(=O)(O)O` [Compound 2, ({(1S,2S)-1-[(2-amino-9H-purine-9-yl)methyl]-2-methylcyclopropyl}oxy)methylphosphonic acid] as the compound, how does the CC50 at 10 days [1] read?
The CC50 at 10 days was over 1000 µM.

What about the EC50 [2, 6] of the same compound?
Its EC50 is 1 µM.

What about the “Result: number of mice showing pharmacological effect / number of total mice” value ([4]; subcutaneous, 10 mg/kg/day) of the same compound?
Its value is 4/4.

With `CC1CC1(Cn1cnc2cnc(N)nc21)OCP(=O)(OCOC(=O)C(C)(C)C)OCOC(=O)C(C)(C)C` [Compound 6, (1S,2S)-3-[({1-[(2-amino-9H-purine-9-yl)methyl]-2-methylcyclopropyl}oxy)methyl]-8,8-dimethyl-3,7-dioxo-2,4,6-trioxa-3λ^5-phosphanon-1-yl-pivalate] as the compound, how does the “Result: number of mice showing pharmacological effect / number of total mice” value ([4]; oral, 1 mg/kg/day) read?
Its value is 5/5.

Which “pharmacological effect (in words)” value ([4]; HBV transgenic mice, orally administrated at 1 mpk or less) does the source give for `CC(C)OC(=O)OCOP(=O)(COC1(Cn2cnc3cnc(N)nc32)CC1C)OCOC(=O)OC(C)C` [Compound 7, (1S,2S)-bis {[(isopropoxycarbonyl)oxy]methyl}({1-[(2-amino-9H-purine-9-yl)methyl]-2-methylcyclopropyl}oxy)methylphosphonate] here?
The value was “very excellent pharmacological effect”.

What about the “Result: number of mice showing pharmacological effect / number of total mice” value ([4]; oral, 1 mg/kg/day) of the same compound?
The value was 5/5.

For `COc1ccc(Sc2nc(N)nc3c2ncn3CC2(OCP(=O)(OCOC(=O)C(C)(C)C)OCOC(=O)C(C)(C)C)CC2C)cc1` [Compound 8, (1S,2S)-3-{[(1-{[2-amino-6-(4-methoxyphenylthio)-9H-purine-9-yl]methyl}-2-methylcyclopropyl)oxy]methyl}-8,8-dimethyl-3,7-dioxo-2,4,6-trioxa-3λ^5-phospanon-1-yl-pivalate], which “Result: number of mice showing pharmacological effect / number of total mice” value ([4]; oral, 1 mg/kg/day) is on record?
Its value is 2/5.

With `CC[C@H]1C[C@]1(Cn1cnc2c(O)nc(N)nc21)OCP(=O)(O)O` [Compound 12, ({(1S,2S)-1-[(2-amino-6-hydroxy-9H-purine-9-yl)methyl]-2-ethylcyclopropyl}oxy)methylphosphonic acid] as the compound, how does the CC50 at 10 days [1] read?
The CC50 at 10 days was over 1000 µM.

And the EC50 [2, 6]?
The EC50 was 0.03 µM.

And the “pharmaceutical activity as an antiviral agent (in words)” value [2]?
The value was “most excellent pharmaceutical activity”.

Which CC50 at 10 days [1] does the source give for `CCC1CC1(Cn1cnc2cnc(N)nc21)OCP(=O)(O)O` [Compound 13, ({(1S,^2S)-1-[(2-amino-9H-purine-9-yl)methyl]-2-ethylcyclopropyl}oxy)methylphosphonic acid] here?
Its CC50 at 10 days is over 1000 µM.

And the EC50 [2, 6]?
The EC50 was over 10 µM.

For `CC1CC1(Cn1cnc2c(N)ncnc21)OCP(=O)(O)O` (stereo not drawn) [Compound 45, ({[(+)-cis-[1-(6-amino-9H-purine-9-yl)methyl]-2-methylcyclopropyl}oxylmethylphosphonic acid], which CC50 at 10 days [1] is on record?
Its CC50 at 10 days is over 1000 µM.

What about the EC50 [2, 6] of the same compound?
The EC50 was over 40 µM.

Which CC50 [5] does the source give for “({(±)-trans-1-[(2-amino-6-hydroxy-9H-purine-9-yl)methyl]-2-propylcyclopropyl}oxy)methylphosphonic acid [Compound 40]” here?
Its CC50 is over 1000 µM.

And the EC50 [2]?
Its EC50 is 1.2 µM.

What does the source list for “({(±)-trans-1-[(2-amino-9H-purine-9-yl)methyl]-2-propylcyclopropyl}oxy)methylphosphonic acid [Compound 39]”?
CC50 [5]: > 1000 µM; EC50 [2]: > 40 µM

What does the source list for “({(±)-trans-1-[(6-amino-9H-purine-9-yl)methyl]-2-propylcyclopropyl}oxy)methylphosphonic acid [Compound 41]”?
CC50 [5]: > 1000 µM; EC50 [2]: > 30 µM

What does the source list for “[{(±)-trans-1-({2-amino-6-[(4-methoxyphenyl)sulfanyl]-9H-purine-9-yl}methyl)-2-ethylcyclopropyl }oxy]methylphosphonic acid [Compound 43]”?
CC50 [5]: > 1000 µM; EC50 [2]: > 0.2 µM
